For 25 compounds, IC50 results are on record in patent US20210188775A1, “CARBOXAMIDE AND SULFONAMIDE DERIVATIVES USEFUL AS TEAD MODULATORS” (Genentech, Inc., priority 2018, published 2021).

pIC50: −log10 of the molar value.

What all share (assay type): binding
The target of one assay is TEAD1 (Homo sapiens, UniProt P28347). Kind of assay: Lipid HTRF TEAD1.
For assay [1], the target named is T1, TEAD3 (Homo sapiens, UniProt Q99594). The assay can be described thus: Lipid HTRF TEAD3.
Assay [2] concerns the target T2, TEAD2 (Homo sapiens, UniProt Q15562). The assay can be described thus: Lipid HTRF TEAD2. A general note: TR-FRET usually uses a lanthanide donor and a delayed reading to cut background.
Another assay addresses TEAD4 (Homo sapiens, UniProt Q15561). The assay can be described thus: Lipid HTRF TEAD4.
Assay [3] concerns the target T1, TEAD3. The assay can be described thus: TEAD lipid assay (Lipid FP, Bodipy-C16 probe displacement). The note with it: fluorescence polarization, His-tagged TEAD, 60 minutes incubation. As to the method: (§1) A TEAD lipid assay was done according to the following method. His-tagged TEAD proteins were pre-incubated with a Bodipy-C16 FP probe (Life Technologies Cat #D3821) for 30 minutes at room temperature to pre-form TEAD-probe complex. […] Duplicate 10 point dose response curves were generated for each test compound. The potency of compounds as TEAD lipid pocket binders was determined by IC50 value generated using a non-linear 4 parameter curve fit.
(Fluorescence polarisation rises when a labelled molecule tumbles more slowly, as on binding a larger partner.)

Assay [4] addresses T2, TEAD2. The description is as above. The note with it: fluorescence polarization, His-tagged TEAD, 60 minutes incubation. How it is done:
as §1

T2 sequence (Q15562 whole entry, species assumed): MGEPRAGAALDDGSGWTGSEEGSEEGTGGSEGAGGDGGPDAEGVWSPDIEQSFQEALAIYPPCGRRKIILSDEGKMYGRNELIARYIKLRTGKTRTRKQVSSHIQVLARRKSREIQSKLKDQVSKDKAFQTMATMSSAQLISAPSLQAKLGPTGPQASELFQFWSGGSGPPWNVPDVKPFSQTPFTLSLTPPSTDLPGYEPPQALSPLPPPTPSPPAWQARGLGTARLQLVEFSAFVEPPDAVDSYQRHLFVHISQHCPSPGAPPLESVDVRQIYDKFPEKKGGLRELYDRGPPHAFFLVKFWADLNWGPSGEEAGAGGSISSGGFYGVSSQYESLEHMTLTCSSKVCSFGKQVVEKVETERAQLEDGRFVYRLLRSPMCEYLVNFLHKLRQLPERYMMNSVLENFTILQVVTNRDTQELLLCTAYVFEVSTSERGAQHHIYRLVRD
T1 sequence (Q99594 whole entry, species assumed): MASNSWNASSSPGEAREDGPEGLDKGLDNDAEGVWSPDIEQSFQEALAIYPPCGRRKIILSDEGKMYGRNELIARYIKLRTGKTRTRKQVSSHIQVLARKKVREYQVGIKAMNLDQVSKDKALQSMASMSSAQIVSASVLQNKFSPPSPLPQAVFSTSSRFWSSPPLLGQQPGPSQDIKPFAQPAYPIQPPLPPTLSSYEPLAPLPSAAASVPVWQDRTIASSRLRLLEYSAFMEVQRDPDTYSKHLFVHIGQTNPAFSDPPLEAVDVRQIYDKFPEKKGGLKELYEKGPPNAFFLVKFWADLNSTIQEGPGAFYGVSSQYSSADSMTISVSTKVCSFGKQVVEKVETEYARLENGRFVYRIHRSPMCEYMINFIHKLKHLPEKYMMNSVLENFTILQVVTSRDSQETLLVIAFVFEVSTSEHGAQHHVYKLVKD
Chain of TEAD4 (Q15561 whole entry, species assumed): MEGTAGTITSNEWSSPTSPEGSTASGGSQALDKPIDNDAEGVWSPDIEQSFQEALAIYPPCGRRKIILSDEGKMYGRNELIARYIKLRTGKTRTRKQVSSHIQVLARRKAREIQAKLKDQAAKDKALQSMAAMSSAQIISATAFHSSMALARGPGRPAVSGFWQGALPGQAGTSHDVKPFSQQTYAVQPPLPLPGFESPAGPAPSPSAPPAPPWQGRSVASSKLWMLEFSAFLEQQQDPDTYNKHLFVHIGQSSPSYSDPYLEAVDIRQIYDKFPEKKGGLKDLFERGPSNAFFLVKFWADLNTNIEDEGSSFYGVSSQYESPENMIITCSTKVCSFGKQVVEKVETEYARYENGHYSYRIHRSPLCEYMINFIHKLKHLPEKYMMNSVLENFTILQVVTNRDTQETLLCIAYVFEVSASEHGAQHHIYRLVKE
Chain of TEAD1 (P28347 whole entry, species assumed): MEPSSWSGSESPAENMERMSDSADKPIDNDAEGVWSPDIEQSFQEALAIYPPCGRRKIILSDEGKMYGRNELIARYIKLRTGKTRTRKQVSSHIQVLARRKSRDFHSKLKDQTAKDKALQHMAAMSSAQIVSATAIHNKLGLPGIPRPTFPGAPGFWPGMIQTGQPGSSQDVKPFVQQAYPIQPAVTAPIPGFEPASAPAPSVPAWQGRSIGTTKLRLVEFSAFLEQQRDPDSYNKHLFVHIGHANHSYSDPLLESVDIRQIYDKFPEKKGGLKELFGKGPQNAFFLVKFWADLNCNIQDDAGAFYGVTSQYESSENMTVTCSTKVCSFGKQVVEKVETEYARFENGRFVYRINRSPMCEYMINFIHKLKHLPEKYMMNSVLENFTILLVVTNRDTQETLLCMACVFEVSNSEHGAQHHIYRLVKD

For orientation: pIC50 means the negative decadic logarithm of the IC50, by convention in mol/L. Lower therefore signals a large IC50. With `CNC(=O)Cc1cccc(CNC(=O)c2cc(/C=C/C3CCC(F)(F)CC3)c(OC)cn2)c1` [Compound 55, (E)-4-(2-(4,4-Difluorocyclohexyl)vinyl)-5-methoxy-N-(3-(2-(methylamino)-2-oxoethyl)benzyl)picolinamide], the pIC50 was 6.70 at TEAD1, 6.64 against TEAD3 [1], 7.05 against TEAD2 [2] and 7.14 against TEAD4.

As to `CNC(=O)Cc1cccc(CNC(=O)c2cc(/C=C/[C@H]3CC[C@@H](C(F)(F)F)CC3)c(OC)cn2)c1` [Compound 57A, 5-Methoxy-N-(3-(2-(methylamino)-2-oxoethyl)benzyl)-4-((E)-2-(cis-4-(trifluoromethyl)cyclohexyl)vinyl) picolinamide], the pIC50 was 6.41 against TEAD1, 6.06 at TEAD3 [1], 7.34 on TEAD2 [2] and 6.88 at TEAD4.

As for `CNC(=O)Cc1cccc(CNC(=O)c2cnc(OC)c(/C=C/[C@H]3CC[C@H](C(F)(F)F)CC3)c2)c1` [Compound 56B, 6-methoxy-N-(3-(2-(methylamino)-2-oxoethyl)benzyl)-5-((E)-2-(trans-4-(trifluoromethyl)cyclohexyl)vinyl) nicotinamide], the pIC50 at TEAD1 was 6.71; against TEAD3 [1], 5.68; against TEAD2 [2], 7.51; against TEAD4, 7.41.

Consider `CNC(=O)Cc1cccc(CNC(=O)c2cnc(OC)c(/C=C/C3CCC(F)(F)CC3)c2)c1` [Compound 54, (E)-5-(2-(4,4-difluorocyclohexyl)vinyl)-6-methoxy-N-(3-(2-(methylamino)-2-oxoethyl)benzyl)nicotinamide], for which the pIC50 is 6.50 on TEAD1, 5.40 against TEAD3 [1], 6.84 on TEAD2 [2] and 6.65 against TEAD4.

As to `CNC(=O)Cc1cccc(CNC(=O)c2cc(/C=C/[C@H]3CC[C@H](C(F)(F)F)CC3)c(OC)cn2)c1` [Compound 57B, 5-methoxy-N-(3-(2-(methylamino)-2-oxoethyl)benzyl)-4-((E)-2-(trans-4-(trifluoromethyl)cyclohexyl)vinyl) picolinamide], the pIC50 against TEAD1 is 6.89; on TEAD3 [1] it was 6.53; at TEAD2 [2], 7.77; at TEAD4, 7.72.

Regarding `COc1ccc(C(=O)NC(C)C)cc1/C=C/Cc1ccccc1` [Compound 30, N-isopropyl-4-methoxy-3-[(E)-3-phenylprop-1-enyl]benzamide], the pIC50 on TEAD3 [3] is 6.21; on TEAD2 [4], 6.14.

Take `COc1ccc(NS(C)(=O)=O)cc1[C@H]1C[C@H](c2cccc(F)c2)C1` (single isomer, unassigned) [Compound 8A]: the pIC50 at TEAD3 [3] was 5.85; on TEAD2 [4], 6.13.

As to `COc1ccc(NS(C)(=O)=O)cc1/C=C/C1CCC(C)(C)CC1` [Compound 5, N-[3-[(E)-2-(4,4-dimethylcyclohexyl)vinyl]-4-methoxy-phenyl]methanesulfonamide], the pIC50 on TEAD3 [3] was 6.11; at TEAD2 [4], 6.22.

In the case of `COc1nc(F)c(NS(C)(=O)=O)cc1/C=C/C1CCC(F)(F)CC1` [Compound 39, N-[5-[(E)-2-(4,4-difluorocyclohexyl)vinyl]-2-fluoro-6-methoxy-3-pyridyl]methanesulfonamide], the pIC50 at TEAD3 [3] is 6.01; at TEAD2 [4], 6.26.

Regarding `COc1nc(F)c(NS(C)(=O)=O)cc1/C=C/CC1CCCC1` [Compound 40, N-[5-[(E)-3-cyclopentylprop-1-enyl]-2-fluoro-6-methoxy-3-pyridyl]methanesulfonamide], the pIC50 at TEAD3 [3] and at TEAD2 [4] was 6.19 throughout.

Consider `COc1nnc(NS(C)(=O)=O)cc1/C=C/C1CCC(C(F)(F)F)CC1` (stereo not shown) [Compound 45, (E)-N-(6-methoxy-5-(2-(4-(trifluoromethyl)cyclohexyl)vinyl)pyridazin-3-yl)methanesulfonamide], for which the pIC50 at TEAD3 [3] is 5.77; on TEAD2 [4] it was 5.80.

For the compound `COc1nc(F)c(NS(C)(=O)=O)cc1/C=C/C1CCCCC1` [Compound 38, N-[5-[(E)-2-cyclohexylvinyl]-2-fluoro-6-methoxy-3-pyridyl]methanesulfonamide], the pIC50 at TEAD3 [3] was 5.70; on TEAD2 [4], 5.96.

As for `COc1cc(F)c(NS(=O)(=O)C2CC2)cc1/C=C/c1ccc(Cl)cc1` [Compound 10, N-[5-[(E)-2-(4-chlorophenyl)vinyl]-2-fluoro-4-methoxy-phenyl]cyclopropanesulfonamide], the pIC50 at TEAD3 [3] is 5.72; on TEAD2 [4], 5.96.

As for `COc1ncc(C(=O)NC(C)CCO)cc1/C=C/c1ccc(Cl)cc1` (single isomer, unassigned) [Compound 19, 5-[(E)-2-(4-chlorophenyl)vinyl]-N-(3-hydroxy-1-methyl-propyl)-6-methoxy-pyridine-3-carboxamide], the pIC50 was 5.80 at TEAD3 [3] and 5.72 on TEAD2 [4].

On to `COc1ccc(NS(=O)(=O)C2CC2)cc1/C=C/C1CCCCC1` [Compound 28, N-[3-[(E)-2-cyclohexylvinyl]-4-methoxy-phenyl]cyclopropanesulfonamide], for which the pIC50 at TEAD3 [3] was 6.00; at TEAD2 [4] it was 6.05.

Regarding `COc1cc(F)c(NS(C)(=O)=O)cc1-c1ccc(C(C)C)cc1` [Compound 12, N-[2-fluoro-5-(4-isopropylphenyl)-4-methoxy-phenyl]methanesulfonamide], the pIC50 was 6.07 on TEAD3 [3] and 6.23 on TEAD2 [4].

As for `C=CS(=O)(=O)Nc1cnc(OC)c(/C=C/C2CCC(F)(F)CC2)c1` [Compound 58, N-[5-[(E)-2-(4,4-difluorocyclohexyl)vinyl]-6-methoxy-3-pyridyl]ethenesulfonamide], the pIC50 against TEAD1 is 7.47; on TEAD3 [1], 7.47; at TEAD2 [2] it was 8.00; against TEAD4, 8.10.

As to `COc1cnc(NS(C)(=O)=O)cc1/C=C/C1(F)CCC(F)(F)CC1` [Compound 20, N-[5-methoxy-4-[(E)-2-(1,4,4-trifluorocyclohexyl)vinyl]-2-pyridyl]methanesulfonamide], the results for the pIC50 on TEAD3 [3] and on TEAD2 [4] were 6.12 and 5.70, respectively.

As for `COc1ncc(NS(C)(=O)=O)cc1/C=C/CC(C)C` [Compound 15, N-[6-methoxy-5-[(E)-4-methylpent-1-enyl]-3-pyridyl]methanesulfonamide], the values for the pIC50 at TEAD3 [3] and on TEAD2 [4] were 5.70 and 5.92, respectively.

Consider `CC[C@H](CO)NC(=O)c1cc(/C=C/C2CC3(CC3)C2)c(OC)nn1` [Compound 47, (E)-N-(1-hydroxybutan-2-yl)-6-methoxy-5-(2-(spiro[2.3]hexan-5-yl)vinyl)pyridazine-3-carboxamide], for which the pIC50 on TEAD3 [3] was 6.07; at TEAD2 [4] it was 5.74.

With `COc1ccc(NS(C)(=O)=O)cc1/C=C/C1CCCC1` [Compound 3, N-[3-[(E)-2-cyclopentylvinyl]-4-methoxy-phenyl]methanesulfonamide], the pIC50 at TEAD3 [3] was 5.74; on TEAD2 [4], 6.24.

Regarding `CNC(=O)Cc1cccc(CNC(=O)c2cnc(OC)c(/C=C/[C@H]3CC[C@@H](C(F)(F)F)CC3)c2)c1` [Compound 56A, 6-Methoxy-N-(3-(2-(methylamino)-2-oxoethyl)benzyl)-5-((E)-2-(cis-4-(trifluoromethyl)cyclohexyl)vinyl)nicotinamide], the pIC50 is 6.15 on TEAD1, 4.82 against TEAD3 [1], 7.10 at TEAD2 [2] and 6.45 at TEAD4.

Turning to `COc1ccc(C(N)=O)cc1/C=C/Cc1ccccc1` [Compound 32, 4-methoxy-3-[(E)-3-phenylprop-1-enyl]benzamide], the figures for the pIC50 at TEAD3 [3] and on TEAD2 [4] were 5.85 and 6.21, respectively.

For `COc1ncc(NS(C)(=O)=O)cc1/C=C/C1CCC(F)(F)CC1` [Compound 14, N-[5-[(E)-2-(4,4-difluorocyclohexyl)vinyl]-6-methoxy-3-pyridyl]methanesulfonamide], the pIC50 was 6.37 at TEAD3 [3] and 6.42 on TEAD2 [4].

Take `COc1ccc(C(N)=O)cc1/C=C/C1CCCCC1` [Compound 31, 3-[(E)-2-cyclohexylvinyl]-4-methoxy-benzamide]: the pIC50 on TEAD3 [3] is 6.01; on TEAD2 [4], 6.11.
